Measurements from article PMC10166914, “GTN057, a komaroviquinone derivative, induced myeloma cells' death in vivo and inhibited c‐MET tyrosine kinase” (Cancer Medicine, 2023).
Values joined by “and” are separate entries in the source; they are usually repeats but may differ in a detail not shown here. Identical values can stand only once.

Tests used:
c-MET = target: T1, c-MET (Homo sapiens, UniProt P08581); assay: Western blot, dose-dependent inhibition of c-MET phosphorylation in KMS34 cells; format: cell-based; conditions: Western blot densitometry, read-out: 50% inhibition of the phosphorylation of c-MET
T1 construct: endogenous in cells; host or cells: KMS34 multiple myeloma cells
T1 sequence (P08581 25-1390): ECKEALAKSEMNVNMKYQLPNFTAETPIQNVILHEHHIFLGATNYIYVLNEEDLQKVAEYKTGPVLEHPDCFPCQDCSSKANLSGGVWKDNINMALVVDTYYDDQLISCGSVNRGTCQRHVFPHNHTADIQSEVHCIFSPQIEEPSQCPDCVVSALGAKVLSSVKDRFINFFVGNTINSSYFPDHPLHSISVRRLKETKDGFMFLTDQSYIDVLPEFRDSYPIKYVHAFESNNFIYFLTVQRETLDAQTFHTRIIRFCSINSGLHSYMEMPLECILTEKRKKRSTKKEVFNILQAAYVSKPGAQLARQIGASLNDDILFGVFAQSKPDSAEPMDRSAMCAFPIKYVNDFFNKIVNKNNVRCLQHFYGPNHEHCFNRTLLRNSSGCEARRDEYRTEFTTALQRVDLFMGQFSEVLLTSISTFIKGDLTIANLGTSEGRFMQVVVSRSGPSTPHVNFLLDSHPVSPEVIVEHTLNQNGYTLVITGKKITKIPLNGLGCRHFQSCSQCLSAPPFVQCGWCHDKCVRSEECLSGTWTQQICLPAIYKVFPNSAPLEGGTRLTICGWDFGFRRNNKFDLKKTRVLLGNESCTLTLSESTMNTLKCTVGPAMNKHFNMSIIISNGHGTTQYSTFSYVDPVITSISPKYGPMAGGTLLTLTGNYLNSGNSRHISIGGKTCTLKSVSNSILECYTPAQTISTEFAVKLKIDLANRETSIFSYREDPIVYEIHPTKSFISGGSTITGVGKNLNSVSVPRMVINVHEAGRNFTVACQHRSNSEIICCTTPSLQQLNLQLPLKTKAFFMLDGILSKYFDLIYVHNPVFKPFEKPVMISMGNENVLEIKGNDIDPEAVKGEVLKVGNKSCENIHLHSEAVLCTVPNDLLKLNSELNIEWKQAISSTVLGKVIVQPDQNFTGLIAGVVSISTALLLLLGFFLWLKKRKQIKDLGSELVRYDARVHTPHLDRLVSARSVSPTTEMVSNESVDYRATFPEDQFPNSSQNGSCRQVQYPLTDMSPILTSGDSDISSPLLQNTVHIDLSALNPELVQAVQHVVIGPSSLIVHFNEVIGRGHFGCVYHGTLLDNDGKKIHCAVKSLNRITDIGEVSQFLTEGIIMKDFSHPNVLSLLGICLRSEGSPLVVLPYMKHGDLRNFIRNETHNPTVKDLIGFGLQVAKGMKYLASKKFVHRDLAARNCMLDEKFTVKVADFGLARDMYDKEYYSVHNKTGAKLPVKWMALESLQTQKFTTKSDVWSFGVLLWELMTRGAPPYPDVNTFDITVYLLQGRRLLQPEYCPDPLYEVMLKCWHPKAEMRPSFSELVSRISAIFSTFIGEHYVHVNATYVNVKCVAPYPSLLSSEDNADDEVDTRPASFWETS
Method: MM cells (4 × 10^5 cells/mL) were incubated with 0–20 μM GTN057 for 12 h. The cells were then co‐cultured with 0–50 ng/mL of hepatocyte growth factor (HGF) (PeproTech, London) or 0–20 ng/mL of fibroblast growth factor (FGF)‐2 (PeproTech) with 1 unit/mL of heparin in RPMI containing 4% dialyzed FCS (Gibco) for the KMS11 and KMS34 cells and 10% dialyzed FCS for the KMS21 cells for 15 min at RT (room temperature). A549 cells were co‐cultured with 0–50 ng/mL of epidermal growth factor (EGF) (PeproTech) in Eagle's MEM containing 4% dialyzed FCS for 15 min at RT. […]
The protein concentrations were measured using a BCA Protein Assay Kit (Thermo Fisher Scientific). […]
Antibodies against phospho‐STAT3 (Tyr705), phospho‐Akt (Ser473), p44/42 MAPK (Erk 1/2), phosphor‐p44/42 MAPK (Thr202/Tyr 204), and phospho‐c‐Met (Tyr1234/1235) (all from Cell Signaling Technology, Danvers, MA) or STAT3, Akt, c‐Met, and β‐actin (all from Santa Cruz Biotechnology, Santa Cruz, CA) or phospho‐c‐Met (Tyr1230/1234/1235) (Biosource, Camarillo, CA for KMS34 cells in Figure 3A) were each used at 1:1000 dilution. […] The Western blotting signals were detected by enhanced ECL chemiluminescence (Amersham). The signal intensity of each band was quantified densitometrically with ImageJ software (ver. 1.48, U.S. National Institutes of Health).

MUM24 cells = assay: ROS production and growth recovery by anti-oxidants; format: cell-based, human
Method: First, 2 × 10^5 cells/mL of MUM24 cells were incubated with or without 6 mM NAC (N‐acetyl cysteine; Sigma‐Aldrich) or 3 mM GSH (glutathione; Sigma‐Aldrich) for 2 h. Next, 20 μM GTN057 was added and cultured for an additional 72 h. Cells were incubated with 1 μM CM‐H2DCFDA (i.e., 5‐(and‐6)‐chloromethyl‐2′, 7′‐dichlorodihydrofluorescein diacetate) for 30 min. For the evaluation of ROS production, the cells were stained with CM‐H2DCFDA and analyzed using a FACS (fluorescence‐activated cell sorting) system (LSR II, BD Biosciences). For the assessment of growth recovery by NAC or GSH, 2 × 10^5 cells/mL of MUM24 cells were also treated with 20 μM GTN057 in the presence or absence of 6 mM NAC or 3 mM GSH as described above. We conducted a trypan blue exclusion test to determine the numbers of viable cells.

[1] = Pharmacokinetic study, LC-MS/MS of plasma; format: in vivo, ICR mice
Method: For the pharmacokinetic study, 0 or 100 mg/kg of GTN057 (1% Tween® 80 + 10% DMSO in saline) was injected (i.p.) into male 5‐week‐old ICR mice. Peripheral blood samples were taken using heparinized hematocrit tubes from the tail vein of each mouse at 0, 15, and 30 min and 1, 2, 4, and 24 h. The blood samples were applied to centrifugation (1100 × g, 15 min at 4°C) and we then collected the supernatant plasma. […] (Wako) and MeOH (Kanto, Tokyo) for LC–MS/MS (liquid chromatography–tandem mass spectrometry) measurements were mixed in a 1:1 ratio, and verapamil hydrochloride (an internal standard substance) was dissolved to the final concentration of 120 ng/mL to prepare a deproteinizing agent. We diluted the blood samples four times with this deproteinizing agent. After 15 min on ice, each deproteinized plasma sample was centrifuged (9100 × g, 10 min, 4°C). The supernatants were collected and used for the LC–MS/MS analyses.
All compounds including GTN057 were analyzed with a mass spectrometer (AB SCIEX) coupled to an HPLC (high‐performance liquid chromatography) system (Shimadzu). The peptides were separated with the use of an Atlantis® dC18, 3‐μm, 100 Å column (Waters). The solvent composition was 15% for solution A (100 mM CH3COONH4) and 85% for solution B (CH3OH). The HPLC measurement settings were as follows. Constant flow rate: 0.2 mL/min, column temperature: 40°C. The MS settings were: spray voltage, 5500 V; turbo heater temperature, 300°C.

[2] = male, mouse, ip, single i.p. injection 100 mg/kg, ICR mice, plasma

COc1c(OC(C)=O)c2c(c(O)c1C(C)C)C(=O)CC1C(C)(C)CCC[C@]1(O)C2 (some centres unmarked) [GTN057]
IC50 (c-MET): 35.9 µM
Abrogation of growth inhibition and apoptosis by anti-oxidants (MUM24 cells; 20 μM GTN057 with 6 mM NAC or 3 mM GSH): not significantly abrogated
ROS production (MUM24 cells; 20 μM, MM cells, CM-H2DCFDA, FACS): produced ROS
Cmax [1, 2]: 790 ng/mL and 1.95 µM
Tmax [1, 2]: 30 min
Degradation in plasma ([1]; plasma, LC-MS/MS, preliminary data): immediately dehydrated (m/z 387) or deacetylated (m/z 363) in plasma
plasma disappearance half-time ([1]; single i.p. injection 100 mg/kg, ICR mice): 110 min
Presence in blood at 24 h post-injection ([1]; single i.p. injection 100 mg/kg, ICR mice, 24 h): almost completely disappeared
